According to PubChem BioAssay (NCI):
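Growth conditions: 96-well plates. Treatment: test compound, 48 hours, 5 concentrations. Analysis: linear interpolation between bracketing concentrations; unreached endpoints set to highest concentration. The concentration for 50% growth inhibition is given as GI50. TGI: concentration producing complete growth inhibition.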

Tests used:
Experiment in all cases: NCI anticancer screen, dose series, 48 h
KM12 colon = tested on: KM12 colon
SNB-75 CNS = tested on: SNB-75 CNS
UACC-257 melanoma = tested on: UACC-257 melanoma
MDA-MB-231 breast = tested on: MDA-MB-231 breast
U251 CNS = tested on: U251 CNS
IGROV1 ovarian = tested on: IGROV1 ovarian
SK-MEL-2 melanoma = tested on: SK-MEL-2 melanoma
HOP-62 NSCLC = tested on: HOP-62 NSCLC
HOP-92 NSCLC = tested on: HOP-92 NSCLC
SF-539 CNS = tested on: SF-539 CNS
NCI-H522 lung = tested on: NCI-H522 lung
NCI-H460 lung = tested on: NCI-H460 lung
MOLT-4 leukemia = tested on: MOLT-4 leukemia
MDA-MB-435 = tested on: MDA-MB-435
M14 melanoma = tested on: M14 melanoma
NCI-H226 lung = tested on: NCI-H226 lung
SR leukemia = tested on: SR leukemia
ACHN renal = tested on: ACHN renal
A498 renal = tested on: A498 renal
OVCAR-8 ovarian = tested on: OVCAR-8 ovarian
UO-31 renal = tested on: UO-31 renal
SW-620 colon = tested on: SW-620 colon
SK-MEL-28 melanoma = tested on: SK-MEL-28 melanoma
RPMI-8226 leukemia = tested on: RPMI-8226 leukemia
PC-3 prostate = tested on: PC-3 prostate
HS 578T breast = tested on: HS 578T breast
A549 NSCLC = tested on: A549 NSCLC
MCF7 breast = tested on: MCF7 breast
UACC-62 melanoma = tested on: UACC-62 melanoma
SN12C renal = tested on: SN12C renal
K-562 leukemia = tested on: K-562 leukemia
CCRF-CEM leukemia = tested on: CCRF-CEM leukemia
SK-MEL-5 melanoma = tested on: SK-MEL-5 melanoma
786-0 renal = tested on: 786-0 renal
DU-145 prostate = tested on: DU-145 prostate
EKVX NSCLC = tested on: EKVX NSCLC
CAKI-1 renal = tested on: CAKI-1 renal
HT29 colon = tested on: HT29 colon
SF-295 CNS = tested on: SF-295 CNS
COLO 205 colon = tested on: COLO 205 colon
TK-10 renal = tested on: TK-10 renal
MALME-3M melanoma = tested on: MALME-3M melanoma
HCT-116 colon = tested on: HCT-116 colon
T-47D breast = tested on: T-47D breast
OVCAR-4 ovarian = tested on: OVCAR-4 ovarian
LOX IMVI melanoma = tested on: LOX IMVI melanoma
SNB-19 CNS = tested on: SNB-19 CNS
OVCAR-3 ovarian = tested on: OVCAR-3 ovarian
SK-OV-3 ovarian = tested on: SK-OV-3 ovarian
BT-549 breast = tested on: BT-549 breast
SF-268 CNS = tested on: SF-268 CNS
RXF 393 renal = tested on: RXF 393 renal
HL-60(TB) leukemia = tested on: HL-60(TB) leukemia
HCC-2998 colon = tested on: HCC-2998 colon
NCI/ADR-RES ovarian = tested on: NCI/ADR-RES ovarian
HCT-15 colon = tested on: HCT-15 colon
OVCAR-5 ovarian = tested on: OVCAR-5 ovarian
NCI-H23 lung = tested on: NCI-H23 lung

CN1CCN(Cc2ccc(NC(=O)c3cncc(C#Cc4cnc5ccc(OC6CCOCC6)nn45)c3)cc2C(F)(F)F)CC1
GI50 (KM12 colon): 5 nM
TGI (KM12 colon): 305 nM
GI50 (SNB-75 CNS): 17.8 nM
TGI (SNB-75 CNS): 209 nM
GI50 (UACC-257 melanoma): 215 nM
TGI (UACC-257 melanoma): 780 nM
GI50 (MDA-MB-231 breast): 38 nM
TGI (MDA-MB-231 breast): 176 nM
GI50 (U251 CNS): 142 nM
TGI (U251 CNS): 527 nM
GI50 (IGROV1 ovarian): 56.2 nM
TGI (IGROV1 ovarian): 503 nM
GI50 (SK-MEL-2 melanoma): 90.6 nM
TGI (SK-MEL-2 melanoma): 199 nM
GI50 (HOP-62 NSCLC): 165 nM
TGI (HOP-62 NSCLC): 953 nM
GI50 (HOP-92 NSCLC): 9.44 nM
TGI (HOP-92 NSCLC): 65.7 nM
GI50 (SF-539 CNS): 39.3 nM
TGI (SF-539 CNS): 526 nM
GI50 (NCI-H522 lung): 88 nM
TGI (NCI-H522 lung): 182 nM
GI50 (NCI-H460 lung): 67.4 nM
TGI (NCI-H460 lung): 618 nM
GI50 (MOLT-4 leukemia): 36.4 nM
TGI (MOLT-4 leukemia): 638 nM
GI50 (MDA-MB-435): 61.7 nM
TGI (MDA-MB-435): 603 nM
GI50 (M14 melanoma): 49.3 nM
TGI (M14 melanoma): 154 nM
GI50 (NCI-H226 lung): 24.1 nM
TGI (NCI-H226 lung): 762 nM
GI50 (SR leukemia): 37.8 nM
TGI (SR leukemia): 332 nM
GI50 (ACHN renal): 105 nM
TGI (ACHN renal): 1750 nM
GI50 (A498 renal): 246 nM
TGI (A498 renal): 797 nM
GI50 (OVCAR-8 ovarian): 132 nM
TGI (OVCAR-8 ovarian): 604 nM
GI50 (UO-31 renal): 158 nM
TGI (UO-31 renal): 729 nM
GI50 (SW-620 colon): 61.3 nM
TGI (SW-620 colon): 332 nM
GI50 (SK-MEL-28 melanoma): 256 nM
TGI (SK-MEL-28 melanoma): 1050 nM
GI50 (RPMI-8226 leukemia): 183 nM
TGI (RPMI-8226 leukemia): 973 nM
GI50 (PC-3 prostate): 144 nM
TGI (PC-3 prostate): 1120 nM
GI50 (HS 578T breast): 105 nM
TGI (HS 578T breast): 648 nM
GI50 (A549 NSCLC): 90.9 nM
TGI (A549 NSCLC): 562 nM
GI50 (MCF7 breast): 37.6 nM
TGI (MCF7 breast): 415 nM
GI50 (UACC-62 melanoma): 127 nM
TGI (UACC-62 melanoma): 732 nM
GI50 (SN12C renal): 52.9 nM
TGI (SN12C renal): 408 nM
GI50 (K-562 leukemia): 5 nM
TGI (K-562 leukemia): 702 nM
GI50 (CCRF-CEM leukemia): 11.3 nM
TGI (CCRF-CEM leukemia): 3130 nM
GI50 (SK-MEL-5 melanoma): 596 nM
TGI (SK-MEL-5 melanoma): 1350 nM
GI50 (786-0 renal): 244 nM
TGI (786-0 renal): 890 nM
GI50 (DU-145 prostate): 141 nM
TGI (DU-145 prostate): 769 nM
GI50 (EKVX NSCLC): 173 nM
TGI (EKVX NSCLC): 805 nM
GI50 (CAKI-1 renal): 43.7 nM
TGI (CAKI-1 renal): 252 nM
GI50 (HT29 colon): 73.2 nM
TGI (HT29 colon): 317 nM
GI50 (SF-295 CNS): 145 nM
TGI (SF-295 CNS): 1560 nM
GI50 (COLO 205 colon): 95.3 nM
TGI (COLO 205 colon): 302 nM
GI50 (TK-10 renal): 90.7 nM
TGI (TK-10 renal): 227 nM
GI50 (MALME-3M melanoma): 69.4 nM
TGI (MALME-3M melanoma): 382 nM
GI50 (HCT-116 colon): 37.5 nM
TGI (HCT-116 colon): 228 nM
GI50 (T-47D breast): 543 nM
TGI (T-47D breast): 2420 nM
GI50 (OVCAR-4 ovarian): 151 nM
TGI (OVCAR-4 ovarian): 1190 nM
GI50 (LOX IMVI melanoma): 71.9 nM
TGI (LOX IMVI melanoma): 420 nM
GI50 (SNB-19 CNS): 221 nM
TGI (SNB-19 CNS): 1640 nM
GI50 (OVCAR-3 ovarian): 123 nM
TGI (OVCAR-3 ovarian): 998 nM
GI50 (SK-OV-3 ovarian): 316 nM
TGI (SK-OV-3 ovarian): 1160 nM
GI50 (BT-549 breast): 537 nM
TGI (BT-549 breast): 1510 nM
GI50 (SF-268 CNS): 142 nM
TGI (SF-268 CNS): 687 nM
GI50 (RXF 393 renal): 96.5 nM
TGI (RXF 393 renal): 288 nM
GI50 (HL-60(TB) leukemia): 57.5 nM
TGI (HL-60(TB) leukemia): 285 nM
GI50 (HCC-2998 colon): 149 nM
TGI (HCC-2998 colon): 457 nM
GI50 (NCI/ADR-RES ovarian): 348 nM
TGI (NCI/ADR-RES ovarian): 1770 nM
GI50 (HCT-15 colon): 95.3 nM
TGI (HCT-15 colon): 324 nM
GI50 (OVCAR-5 ovarian): 257 nM
TGI (OVCAR-5 ovarian): 1580 nM
GI50 (NCI-H23 lung): 120 nM
TGI (NCI-H23 lung): 474 nM
